Assay results as given in patent US9598349B2, “Quinone based nitric oxide donating compounds for ophthalmic use” (NICOX SCIENCE IRELAND, priority 2013, dated 2017).
Like-named read-outs stand apart in the source and are kept apart here. Each block holds one compound with its values, some of them ahead of it.

Legend:
[1] = tested on: lipidic peroxidation of membrane lipids in rat hepatic microsomes; assay: In vitro antioxidant activity (TBARS test); type: biochemical; conditions: read-out: Antioxidant activity IC50 μM (CL 95%)
Protocol: The antioxidant properties of compound (1) (example 1), its precursors (3-methyl-3-(2,4,5-trimethyl-3,6-dioxocyclohexa-1,4-dien-1-yl)butanoic acid, described in Example 1 Step 2 (Intermediate 2) and reference antioxidant compounds were assessed after NADPH-induced lipidic peroxidation of membrane lipids in rat hepatic microsomes using the detection of 2-thiobarbituric acid reactive substances (TBARS) by visible spectroscopy.
Hepatic microsomal membranes from male Wistar rats (200-250 g) were prepared by differential centrifugation (8000 g, 20 min; 120000 g, 1 h) in a HEPES/sucrose buffer (10 mM, 250 mM, pH 7.4) and stored at −80° C. Incubation was performed at 37° C. in a Tris-HCl/KCl (100 mM/150 mM, pH 7.4) containing microsomal membranes (2 mg prot/mL), sodium ascorbate (100 μM), and DMSO solutions of the tested compounds.
Lipid peroxidation was initiated by adding ADP-FeCl3 and NADPH (Method A) or 2.5 μM FeSO4 (Method B) (as described by Boschi D. et al., J. Med. Chem. 2006, 49:2886-2897). Aliquots were taken from the incubation mixture at 5, 15, and 30 min and treated with trichloroacetic acid (TCA) 10% w/v.
Lipid peroxidation was assessed by spectrophotometric (543 nm) determination of the TBARS consisting mainly of malondialdehyde (MDA). TBARS concentrations (expressed in nmol/mg protein) were obtained by interpolation with a MDA standard curve. The antioxidant activity of tested compounds was evaluated as the percent inhibition of TBARS production with respect to control samples, using the values obtained after 30 min of incubation. IC50 values were calculated by nonlinear regression analysis.

[2] = tested on: hypertonic saline-induced IOP increase; assay: IOP lowering activity in hypertonic saline-induced IOP increase in rabbits (Example 11); type: in vivo, New Zealand White rabbits
Protocol: The Intraocular pressure (IOP) lowering activity of compound (1) (Example 1) was assessed in an animal model of elevated IOP.
(§1) Adults male New Zealand White rabbits weighting 1.8-2.0 Kg were used in the experiments.
(§2) Animals were anesthetized using 20 mg/ml/kg of sodium pentobarbital. The increase in IOP was induced by the injection of 0.1 ml of hypertonic saline solution (5%) into the vitreous bilaterally (Krauss et al., 2011, Orihashi et al., 2005).
IOP was measured using a Tono-Pen XL prior to hypertonic saline injection (basal) and at 30, 60, 90, 120, 240 and 360 min thereafter. Vehicle (5% cremophor-EL; 0.3% DMSO; 0.2 mg/ml Benzalkonium chloride (bac) in PBS pH 6.0,) or compound of the invention were instilled as eye drops immediately after hypertonic saline injection. Eyes were randomly assigned to different treatment groups. Vehicle or compounds of the invention were directly instilled into the conjunctiva pocket at the desired doses. One drop of 0.2% oxybuprocaine hydrochloride (Novesine, Sandoz) diluted 1:1 with saline was instilled in each eye immediately before each set of pressure measurements.
Results are reported in Table 2 in which the ocular hypotensive activity of compound (1) is expressed as mean average of IOP measurements at 60 and 120 minutes following topical administration.

[3] = tested on: hypertonic saline-induced IOP increase; assay: IOP lowering activity in hypertonic saline-induced IOP increase in rabbits, two concentrations (Example 16); type: in vivo, New Zealand White rabbits; conditions: for IOP change (mmHg): versus vehicle and versus basal IOP
Protocol: The present study evaluated the intraocular pressure lowering effect of single applications of two different concentrations (1% and 0.3%) of compound (1) in rabbits with experimental increase in IOP.
as §1
The transient increase in IOP was induced by the injection of 0.1 ml of hypertonic saline solution (5%) into the vitreous bilaterally (Krauss et al., 2011, Orihashi et al., 2005).
IOP was measured using a Tono-Pen XL prior to hypertonic saline injection (basal) and at 30, 60, 120 and 240 min thereafter. Vehicle (5% cremophor-EL; 0.3% DMSO; 0.2 mg/ml Benzalkonium chloride in PBS pH 6.0) or compound was instilled as eye drops immediately after hypertonic saline injection. Eyes were randomly assigned to different treatment groups. Vehicle and compound were directly instilled into the conjunctiva pocket at the desired doses. One drop of 0.4% oxybuprocaine hydrochloride (Novesine, Sandoz) was instilled in each eye immediately before each set of pressure measurements.
Results are reported in Table 3 and they are expressed as IOP change (at 60 and 120 minutes following topical administration) versus vehicle and versus IOP at basal before hypertonic saline injection.

[4] = tested on: hypertonic saline-induced IOP increase; assay: IOP lowering activity in hypertonic saline-induced IOP increase in rabbits, versus ISMN (Example 17); type: in vivo, New Zealand White rabbits; conditions: for IOP change (mmHg): dose 1%, versus vehicle and versus basal IOP
Protocol: The present study evaluated the intraocular pressure lowering effect of single application of compound (15) (Example 12) and of ISMN (isosorbide-5-mononitrate) used as reference compound, in an animal model of elevated IOP.
as §1, §2
IOP was measured using a Tono-Pen XL prior to hypertonic saline injection (basal) and at 30, 60, 90, 120, 240 and 360 min thereafter. Vehicle (5% cremophor-EL; 0.3% DMSO; 0.2 mg/ml Benzalkonium chloride in PBS pH 6.0,) or tested compound was instilled as eye drops immediately after hypertonic saline injection. Eyes were randomly assigned to different treatment groups. Vehicle or compounds were directly instilled into the conjunctiva pocket at the desired doses. One drop of 0.2% oxybuprocaine hydrochloride (Novesine, Sandoz) diluted 1:1 with saline was instilled in each eye immediately before each set of pressure measurements.
Results are reported in Table 4 and they are expressed as IOP change (at 30 and 60 minutes following topical administration) versus vehicle and versus IOP at basal before hypertonic saline injection.

[5] = tested on: lipidic peroxidation of membrane lipids in rat hepatic microsomes; conditions: Method B; values from Chegaev et al. (footnotes b, c); read-out: Antioxidant activity IC50 μM (CL 95%); cited from earlier work
[6] = Method A: lipid peroxidation induced by ADP-FeCl3 and NADPH, inhibition of TBARS production after 30 min incubation at 37° C.

SMILES: O=C(O)/C=C/c1ccc(O)c(O)c1 [Caffeic acid, reference compound]
IC50 ([1]; Method B: lipid peroxidation induced by FeSO4 and ascorbic acid, inhibition of TBARS production after 30 min incubation at 37° C.): 33 µM

SMILES: CC1=C(C)C(=O)C(C(C)(C)CC(=O)OCCCC[C@@H](CO[N+](=O)[O-])O[N+](=O)[O-])=C(C)C1=O [Compound (15), (S)-5,6-bis(nitrooxy)hexyl 3-methyl-3-(2,4,5-trimethyl-3,6-dioxocyclohexa-1,4-dienyl)butanoate]
IOP change (mmHg) ([4]; 30 minutes): −6.5 ± 2.6 mmHg
IOP change (mmHg) ([4]; 60 minutes): −4.9 ± 2.4 mmHg
IOP reduction compared to ISMN (in words) ([4]; single application, 1%): significantly higher IOP reduction as compared to ISMN treated group

SMILES: CC1=NN(c2ccccc2)C(=O)C1 [Edavarone]
IC50 [5]: 17 µM

SMILES: O=[N+]([O-])O[C@@H]1CO[C@H]2[C@@H]1OC[C@@H]2O [ISMN, isosorbide-5-mononitrate, reference compound]
IOP change (mmHg) ([4]; 30 minutes): −2.6 ± 3.5 mmHg
IOP change (mmHg) ([4]; 60 minutes): −0.7 ± 2.9 mmHg

SMILES: COc1ccc2[nH]cc(CCNC(C)=O)c2c1 [Melatonin]
IC50 [5]: 476 µM

Second part, led by results:

IC50 [1, 6]: 28 µM
SMILES: CC1=C(C)C(=O)C(C(C)(C)CC(=O)OCCCCO[N+](=O)[O-])=C(C)C1=O [Compound (1), 4-(nitrooxy)butyl 3-methyl-3-(2,4,5-trimethyl-3,6-dioxocyclohexa-1,4-dienyl)butanoate]
IOP (mmHg) ([2]; 60 minutes following topical administration (eye drops)): 29 ± 7.8 mmHg
IOP (mmHg) ([2]; 120 minutes following topical administration (eye drops)): 18.9 ± 4.1 mmHg
IOP change (mmHg) ([3]; dose 0.3%, 60 minutes): −5.5 ± 3.1 mmHg
IOP change (mmHg) ([3]; dose 0.3%, 120 minutes): −5.7 ± 2.1 mmHg
IOP change (mmHg) ([3]; dose 1%, 60 minutes): −9.1 ± 3.4 mmHg
IOP change (mmHg) ([3]; dose 1%, 120 minutes): −9.5 ± 2.2 mmHg
IOP reduction (in words) ([3]; single application, both doses (1% and 0.3%)): significant IOP reduction

IC50 ([1]; Method B, footnote a: tested at 1 mM concentration): 50.5 ± 0.4 µM
SMILES: COc1cc(/C=C/C(=O)O)ccc1O [Ferulic acid, reference compound]

IC50 [1, 6]: 157 µM
SMILES: CC1=C(C)C(=O)C(C(C)(C)CC(=O)O)=C(C)C1=O [Intermediate 2, 3-methyl-3-(2,4,5-trimethyl-3,6-dioxocyclohexa-1,4-dien-1-yl)butanoic acid]
